Earlier results on two compounds are cited in patent US20060014828A1 (priority 2004, published 2006).

Structures can show the parent of a compound that is named as a salt.

On to `O=[N+]([O-])O[C@H]1CO[C@H]2[C@@H]1OC[C@H]2O[N+](=O)[O-]` [isosorbide dinitrate, 1,4,3,6-dianhydro-D-glucitol-2,5-dinitrate], for which the “Solubility in organic solvents such as ethanol, ether and chloroform” value was “freely soluble”; the Solubility in water entry is listed as “sparingly soluble”.
On to `NNc1nncc2ccccc12` [Hydralazine hydrochloride], for which the Solubility in alcohol result is given as “slightly soluble”, the Solubility in ether entry was “very slightly soluble” and the Solubility in water entry was “soluble”.
